Mortality and LD50 data for 22 molecules are collected here from ChEMBL document CHEMBL3045009, “Synthesis and Biological Activity of the Functional Derivatives of 3- and 4-(Dimethyl-aminomethyl)-1,2-dithiolanes” (1992).

What all share (type): functional
In one test the test system is Culex pipiens molestus. The experiment in a line: Insecticidal activity against Culex pipiens molestus assessed as mortality at 5 ppm. The conditions noted are these: for mortality at 5 ppm: Culex pipiens.
The test system of test [1] is Chilo suppressalis. The experiment in a line: Insecticidal activity against Chilo suppressalis (rice stem borer) assessed as mortality at 50 ug/g administered as topical application.
For test [2], the system named is Chilo suppressalis. In words: Insecticidal activity against Chilo suppressalis (rice stem borer) assessed as mortality compound administered as topical application.
Another test relates to Nilaparvata lugens. In words: Insecticidal activity against Nilaparvata lugens (brown planthopper) assessed as mortality at 50 ppm. The conditions noted are these: for mortality at 50 ppm: Nilaparvata lugens.
Another test has as its system Spodoptera litura. In words: Insecticidal activity against Spodoptera litura assessed as mortality at 500 ppm. The conditions noted are these: for mortality at 500 ppm: Spodoptera litura.
The test system of another test is Tetranychus urticae. The experiment in a line: Acaricidal activity against Tetranychus urticae (two-spotted spider mite) assessed as mortality at 500 ppm. The conditions noted are these: for mortality at 500 ppm: Tetranychus urticae.

Turning to `CCC(=O)SCC(CSC(=O)CC)CN(C)C.O=C(O)C(=O)O`, the mortality amounted to 75% in the test with Culex pipiens molestus, 100% with Chilo suppressalis [1] and 0% with Spodoptera litura. Besides, the LD50 with Chilo suppressalis [2] turned out to be 6.6 mg/kg. For the same molecule, the mortality at 50 ppm with Nilaparvata lugens was 70%. The mortality at 500 ppm in the test on Tetranychus urticae came out at 100%.

`CN(C)CC1CCSS1.O=C(O)C(=O)O` (configuration not stated): in the test on Culex pipiens molestus, the mortality at 5 ppm came to 100%. Besides, the mortality in the test on Chilo suppressalis [1] is listed as 100%. Also, in the test on Chilo suppressalis [2], the LD50 turned out to be 4.3 mg/kg. For the same molecule, the mortality at 50 ppm in the test on Nilaparvata lugens turned out to be 80%. Besides, the mortality at 500 ppm was determined as 30% in the test with Spodoptera litura and 100% in the test on Tetranychus urticae.

Regarding `CN(C)CC1CSSC1.O=C(O)C(=O)O`, the mortality at 5 ppm in the test with Culex pipiens molestus was determined as 100%. Besides, the mortality in the test on Chilo suppressalis [1] came to 100%. Further, in the test with Chilo suppressalis [2], the LD50 was determined as 11.4 mg/kg. For the same molecule, the mortality at 50 ppm in the test with Nilaparvata lugens was found to be 100%. Also, the mortality at 500 ppm with Spodoptera litura is 90%; with Tetranychus urticae, 100%.

Turning to `CN(C)C1CSSC1.O=C(O)C(=O)O` [NEREISTOXIN HYDROGEN OXALATE], the mortality at 5 ppm in the test with Culex pipiens molestus is 100%. In addition, in the test with Chilo suppressalis [1], the mortality stood at 100%. Moreover, the 50% lethal dose (LD50) in the test with Chilo suppressalis [2] turned out to be 1.7 mg/kg. For the same molecule, the mortality at 50 ppm in the test on Nilaparvata lugens was found to be 100%. The figures for the mortality at 500 ppm in the test with Spodoptera litura and with Tetranychus urticae were 30% and 50%, respectively.

With `CN(C)C[C@@H]1CCSC(C(=O)c2ccccc2)(C(=O)c2ccccc2)S1.O.O=C(O)C(=O)O`, the mortality in the test on Culex pipiens molestus was found to be 65%; in the test on Chilo suppressalis [1] it was 100%; in the test on Spodoptera litura, 0%. Moreover, the LD50 in the test with Chilo suppressalis [2] was 7.5 mg/kg. Besides, in the test with Nilaparvata lugens, the mortality at 50 ppm worked out at 100%. Also, the mortality at 500 ppm in the test on Tetranychus urticae amounted to 100%.

In the case of `CNC(=O)SCC(CSC(=O)NC)CN(C)C`, the mortality at 5 ppm with Culex pipiens molestus is 100%. The mortality with Chilo suppressalis [1] is reported as 100%. In addition, the LD50 with Chilo suppressalis [2] was 27.1 mg/kg. Further, the mortality at 50 ppm in the test on Nilaparvata lugens turned out to be 30%. In addition, the mortality at 500 ppm in the test with Spodoptera litura amounted to 20%; with Tetranychus urticae, 90%.

On to `CN(C)CC1CCS[S+]1[O-].O=C(O)C(=O)O` (configuration not stated), for which the mortality at 5 ppm in the test with Culex pipiens molestus is 100%. Further, the mortality with Chilo suppressalis [1] came to 100%. In the test on Chilo suppressalis [2], the 50% lethal dose (LD50) came out at 7.5 mg/kg. Also, the mortality at 50 ppm in the test with Nilaparvata lugens came out at 100%. In addition, the mortality at 500 ppm in the test with Spodoptera litura was determined as 0%; with Tetranychus urticae it was 100%.

Consider `CN(C)C[C@@H]1CCSC(C(=O)c2ccccc2)(C(=O)c2ccccc2)S1`, for which the mortality in the test with Culex pipiens molestus was 40%; with Chilo suppressalis [1], 100%; in the test on Nilaparvata lugens it was 90%; in the test with Spodoptera litura it was 10%; with Tetranychus urticae it was 100%. Also, in the test with Chilo suppressalis [2], the LD50 was determined as 7.1 mg/kg.

For the molecule `CCN(CC)C(=O)[C@]1(C#N)SC[C@H](CN(C)C)CS1.O=C(O)C(=O)O`, the mortality at 5 ppm in the test with Culex pipiens molestus is 100%. Further, the mortality in the test on Chilo suppressalis [1] stood at 100%. In addition, the median lethal dose (LD50) in the test with Chilo suppressalis [2] is 7.2 mg/kg. The mortality at 50 ppm in the test on Nilaparvata lugens was determined as 80%. Also, the mortality at 500 ppm in the test with Spodoptera litura and in the test on Tetranychus urticae was 100% in each case.

In the case of `CN(C)CC(CSC(=O)c1ccccc1)CSC(=O)c1ccccc1`, in the test on Culex pipiens molestus, the mortality at 5 ppm stood at 100%. The mortality with Chilo suppressalis [1] is recorded as 100%. Further, in the test with Chilo suppressalis [2], the 50% lethal dose (LD50) worked out at 4 mg/kg. Moreover, in the test on Nilaparvata lugens, the mortality at 50 ppm is 100%. Moreover, the mortality at 500 ppm in the test on Spodoptera litura came out at 10%; in the test with Tetranychus urticae, 100%.

On to `CN(C)CC1CSSSC1.O=C(O)C(=O)O`, for which the mortality at 5 ppm in the test on Culex pipiens molestus came to 100%. The mortality in the test on Chilo suppressalis [1] is reported as 100%. For the same molecule, the 50% lethal dose (LD50) with Chilo suppressalis [2] amounted to 7.5 mg/kg. In addition, the mortality at 50 ppm in the test with Nilaparvata lugens was 100%. Also, the mortality at 500 ppm in the test on Spodoptera litura and in the test with Tetranychus urticae was 100% throughout.

On to `CCC(=O)SCC(CSC(=O)CC)CN(C)C`, for which the mortality with Culex pipiens molestus came out at 100%; in the test with Chilo suppressalis [1], 100%; with Nilaparvata lugens, 70%; in the test on Spodoptera litura, 40%; in the test on Tetranychus urticae, 100%. The LD50 in the test with Chilo suppressalis [2] is 7.6 mg/kg.

Turning to `CNC(=S)SCCC(CN(C)C)SC(=S)NC` (configuration not stated), the mortality at 5 ppm in the test on Culex pipiens molestus stood at 70%. The mortality with Chilo suppressalis [1] is on record as 100%. Moreover, the LD50 in the test with Chilo suppressalis [2] is 15.8 mg/kg. Moreover, the mortality at 50 ppm in the test on Nilaparvata lugens was found to be 70%. The figures for the mortality at 500 ppm in the test on Spodoptera litura and in the test on Tetranychus urticae were 10% and 80%, respectively.

Take `CC(=O)SCC(CSC(C)=O)CN(C)C.O=C(O)C(=O)O`: in the test on Culex pipiens molestus, the mortality at 5 ppm is 100%. The mortality in the test with Chilo suppressalis [1] was 100%. The LD50 in the test with Chilo suppressalis [2] was 32.5 mg/kg. Besides, in the test on Nilaparvata lugens, the mortality at 50 ppm is 100%. Also, the mortality at 500 ppm in the test with Spodoptera litura stood at 70%; in the test on Tetranychus urticae it was 100%.

Regarding `CCN(CC)C(=O)[C@]1(C#N)SC[C@@H](CN(C)C)CS1.O=C(O)C(=O)O`, in the test on Culex pipiens molestus, the mortality at 5 ppm worked out at 95%. For the same molecule, in the test on Chilo suppressalis [1], the mortality is 100%. In addition, in the test with Chilo suppressalis [2], the LD50 turned out to be 5.8 mg/kg. The mortality at 50 ppm in the test on Nilaparvata lugens was 100%. Moreover, the mortality at 500 ppm in the test on Spodoptera litura and in the test with Tetranychus urticae was 100% in each case.

With `CN(C)CC(CCSS(=O)(=O)c1ccccc1)SS(=O)(=O)c1ccccc1` (configuration not stated), in the test with Culex pipiens molestus, the mortality at 5 ppm stood at 100%. Besides, the mortality in the test on Chilo suppressalis [1] is reported as 100%. Also, the 50% lethal dose (LD50) in the test on Chilo suppressalis [2] is 11.6 mg/kg. For the same molecule, in the test on Nilaparvata lugens, the mortality at 50 ppm is 30%. In addition, the values for the mortality at 500 ppm with Spodoptera litura and with Tetranychus urticae were 0% and 100%, respectively.

Regarding `CC(C)NC(=O)SCCC(CN(C)C)SC(=O)NC(C)C` (configuration not stated), the mortality at 5 ppm in the test with Culex pipiens molestus amounted to 65%. Besides, the mortality in the test on Chilo suppressalis [1] was found to be 100%. In the test on Chilo suppressalis [2], the LD50 came to 24.5 mg/kg. In the test with Nilaparvata lugens, the mortality at 50 ppm came out at 45%. The mortality at 500 ppm in the test with Spodoptera litura stood at 0%; in the test on Tetranychus urticae it was 50%.

For the molecule `CN(C)CC(CSC(N)=O)CSC(N)=O.Cl.O`, in the test with Culex pipiens molestus, the mortality at 5 ppm is 100%. The mortality with Chilo suppressalis [1] worked out at 100%. In addition, the LD50 with Chilo suppressalis [2] was 12.6 mg/kg. For the same molecule, in the test with Nilaparvata lugens, the mortality at 50 ppm worked out at 100%. For the same molecule, the mortality at 500 ppm in the test with Spodoptera litura amounted to 100%; in the test on Tetranychus urticae, 80%.

On to `CN(C)C1CS[S+]([O-])C1.O=C(O)C(=O)O` (configuration not stated) [NEREISTOXIN MONOXIDE HYDROGEN OXALATE], for which the mortality at 5 ppm in the test on Culex pipiens molestus turned out to be 50%. Besides, the mortality in the test with Chilo suppressalis [1] came out at 100%. For the same molecule, the LD50 in the test on Chilo suppressalis [2] was 5.8 mg/kg. Besides, in the test on Nilaparvata lugens, the mortality at 50 ppm is 100%. Further, the mortality at 500 ppm was determined as 30% in the test with Spodoptera litura and 60% with Tetranychus urticae.

`CN(C)C[C@@H]1CCSC(C#N)(c2ccc(Cl)cc2)S1.O=C(O)C(=O)O` (mixture of isomers): the mortality at 5 ppm with Culex pipiens molestus turned out to be 90%. Moreover, in the test on Chilo suppressalis [1], the mortality was 100%. Besides, in the test with Chilo suppressalis [2], the LD50 stood at 20.7 mg/kg. The mortality at 50 ppm with Nilaparvata lugens worked out at 90%. For the same molecule, the mortality at 500 ppm with Spodoptera litura turned out to be 0%; in the test on Tetranychus urticae it was 100%.

For the molecule `CN(C)CC1CSC(C(=O)c2ccccc2)(C(=O)c2ccccc2)SC1`, the mortality in the test on Culex pipiens molestus is reported as 100%; with Chilo suppressalis [1], 100%; in the test with Nilaparvata lugens, 100%; in the test with Spodoptera litura, 0%; in the test on Tetranychus urticae, 80%. The LD50 in the test on Chilo suppressalis [2] is 13.5 mg/kg.

On to `CN(C)C(CSC(N)=O)CSC(N)=O.Cl` [CARTAP HYDROCHLORIDE], for which the mortality at 5 ppm with Culex pipiens molestus was determined as 100%. In the test on Chilo suppressalis [1], the mortality amounted to 100%. The LD50 in the test with Chilo suppressalis [2] was found to be 2.3 mg/kg. In addition, the mortality at 50 ppm in the test on Nilaparvata lugens is 100%. The values for the mortality at 500 ppm with Spodoptera litura and in the test with Tetranychus urticae were 35% and 37%, respectively.
